What was measured:
[1] = arthritis patients; cited from earlier work
A375 cell line = assay: Microarray analysis of A375 cells treated with leflunomide; assay type: cell-based, human; settings: 25 uM, 3 days
Experimental: Expression analysis was performed using Illumina WG6 v3 arrays, and the data was analyzed using Illumina Genome Studio.

[2] = system: neural crest stem cells (NCSCs) from fetal (E14.5) rat gut; assay: Rat neural crest stem cell assays (self-renewal, colony size, differentiation); assay type: cell-based
Experimental: Enteric NCSCs from the fetal (E14.5) rat gut were isolated using flow cytometry to select the 1%-2% of cells expressing the highest levels p75 and α4 integrin as previously described^9. Cells were plated at clonal density in two wells/treatment and cultured in self-renewal medium for 8 days in LEF, A771726 or the vehicle (DMSO) followed by differentiation medium+/−LEF, A771726 or DMSO for 6 days. Cultures were fixed in 4% PFA then stained with antibodies against peripherin, GFAP, and SMA to identify neurons (N), glia (G) and myofibroblasts (M) respectively (U=unstained cells). A total of 3 to 4 independent experiments were performed, and differences measured by ANOVA followed by Bonferonni posthoc comparison. Self-renewal medium contains: DMEM-low glucose, 15% Chick Embryo Extract (CEE), Penn/Strep (P/S), 1% N2 supplement, 2% B27 supplement, 110 nM Retinoic Acid, 50 μM 2-mercaptoethanol 20 ng/ml bFGF, and 20 ng/ml IGF-1. Differentiation medium is the same except it contains 1% CEE, 10 ng/ml bFGF and no IGF-1. Differences between groups were calculated using ANOVA followed by posthoc Sheffe.
Dissociated fetal rat gut cells were plated at clonal density in non-adherent conditions in self-renewal medium with LEF, a77 or DMSO for 10 days^10. Three to five primary neurospheres per treatment were individually re-plated in adherent conditions with LEF, a77 or DMSO and after three days were dissociated into a single cell suspension using trypsin and collagenase IV. Dissociated cells from each neurosphere were re-plated in non-adherent conditions without LEF or a77 and after 10 days, the number of secondary neurospheres were counted and compared. To assess the number of multipotent primary and secondary neurospheres, a subset of neurospheres were plated adherently for 8 days in self-renewal medium followed by 6 days in differentiation medium. Cultures were fixed in 4% PFA and stained with antibodies against peripherin, GFAP, and SMA to identify neurons (N), glia (G) and myofibroblasts (M) respectively. A total of 5 independent experiments were analyzed, and the number of multipotent secondary neurospheres on a given day are normalized to the DMSO control wells, and differences calculated by ANOVA.

[3] = system: Human BRAFV600 (M491) cells; assay: Human BRAFV600 (M491) primary melanoma xenografts in mice; assay type: in vivo, mouse; settings: in combination with BRAFi and MEKi
A375 cells = assay: Cell viability of melanoma cell line A375 (FIG. 28b); assay type: cell-based, human
Source text: (§1) FIG. 28a, M481 cells. FIG. 28b, A375 cells. FIG. 28c, M405 cells. FIG. 28d, M528 cells. FIG. 28e, M715 cells.

M481 cells = assay: Cell viability of primary human melanoma cells M481; assay type: cell-based; settings: FIG. 28a
Source text: as §1

neural crest derivatives = assay: Zebrafish neural crest assay (melanocytes, mitf-GFP, iridophores, mbp-mCherry glia, jaw cartilage); assay type: in vivo
Source text: The mitf-GFP transgenic was scored at 24 hpf, as this is the point of maximal GFP intensity.

[4] = system: crestin+ neural crest progenitors; assay: In situ hybridization (ISH) for crestin in zebrafish embryos (chemical screen for suppressors of neural crest development); assay type: in vivo; settings: for crestin expression by ISH: zebrafish embryos, 50% epiboly to 24 hpf
Experimental: The screen was performed essentially as previously described^31. In brief, WT embryos were collected, staged and then plated at a density of 10 embryos per well in a […] tissue culture plate in 200 ul of E3 water. At 50% epiboly, 100 ul of a 3× chemical stock was added to each well using a Hamilton liquid handling robot, yielding a final 1× concentration. For the majority of the chemicals in the library, this yielded a concentration of ˜33 uM. The libraries used were the BIOMOL 480, Sigma LOPAC 1280, and selected additional compounds obtained through the Children's Hospital Boston Chemical Screening facility. Compounds known to affect pigmentation in Xenopus were obtained from a screen previously described^32, 33. After treatment, embryos were rinsed in E3 water, pronase treated to remove chorions, washed 4× in E3 and 1× in PBT, and then fixed in 4% PFA for 24 hours. Fixed embryos were changed to 100% methanol 24 h later, and kept until the time of ISH.
Embryos underwent automated ISH using a Biolane HTI robot with a crestin riboprobe as previously described^31. All wells were manually scored by eye, assigning a score within a range of 1 (no crestin staining) to 3 (no change in crestin) to 5 (marked increase in crestin). Note was also taken of chemicals that affected migratory patterns in both A-P and D-V directions, and overall morphology. […] All hits were validated in larger, independent clutches of 100-200 embryos using chemicals obtained from independent suppliers.

[5] = 100 mg daily for 3 days, then 20 mg per day; cited from earlier work
[6] = system: sox10, dct, ntl, gata1 expression; assay: In situ hybridization for neural crest and non-neural crest lineage markers; settings: zebrafish, in vivo
[7] = system: 5' and 3' transcripts of mitf, dlb, beta-actin; assay: 5'-3' transcriptional elongation assay (qRT-PCR on whole embryos); assay type: in vivo, zebrafish
Experimental: Primers were designed to the noted genes, situated at the very 5′ end or 3′ end of the gene, situated in the UTR if annotated. qRT-PCR was then performed using SYBR Green, and each primer pair was normalized to an average of the Ct value for the 5′ beta-actin and 3′ beta-actin primers. Fold-change was calculated using the delta-delta Ct method, and all values are expressed relative to the DMSO control, after log 2 transformation. Differences between groups were assessed using t-tests. Primer sequences available upon request.

[8] = 6.5 uM, 24 hpf, relative to DMSO

For Cc1oncc1C(=O)Nc1ccc(C(F)(F)F)cc1 [leflunomide], the “treatment-related adverse event more prevalent than with placebo” value [1] is given as “elevation of liver transaminase”, the “gene expression in A375 (microarray)” value (A375 cell line) is given as “downregulation of genes required for neural crest development” and the “colony size reduced compared to controls” value [2] is given as 18%. The “differentiation or survival of specific progeny” value [2] was “no effect on differentiation or survival of specific progeny”, the “number of self-renewing NCSCs from primary stem cell colonies” value [2] was 27+/−5.35 % of controls and the tumor growth [3] was “significantly impair tumor growth”. The “cell survival of A375 cells” value (A375 cells) was “impair cell survival”, the “cell survival of M481 cells” value (M481 cells) was “impair cell survival” and the microphthalmia (neural crest derivatives; 2.5 uM from 5-72 hpf) was “microphthalmia was induced”. For the same compound, the “reflective iridophores on the surface of the eye” value (neural crest derivatives; 2.5 uM from 5-72 hpf) was “reduction of reflective iridophores on the surface of the eye”, the “mitf-GFP+ cells” value (neural crest derivatives; 24 hpf) was “nearly complete loss of mitf-GFP+ cells” and the pigmented melanocytes (neural crest derivatives; 36-48 hpf) was “devoid of pigmented melanocytes”. For the same compound, the jaw cartilage (neural crest derivatives; 72 hpf) was “jaw cartilage disruption”, the “myelin basic protein (mbp)-mCherry glial cells” value (neural crest derivatives; 72 hpf) was “reduction of myelin basic protein (mbp)-mCherry glial cells” and the “ability to inhibit neural crest development (rank order of effect)” value ([4]; Example III, different concentrations, crestin ISH) was “approximately the same as compounds 5 and 6”. For the same compound, the “crestin expression by ISH” value [4] was “reduction in expression of the neural crest”, the “crestin expression by ISH” value ([4]; listed as Leflunomide) was “phenocopied NSC210627” and the steady-state concentration [5] was “approximately 60 mcg/mL”. For the same compound, the “expression of sox10 and dct (ISH)” value [6] was “reduced expression of sox10 and dct”, the “intensity of mesoderm marker ntl and blood marker gata1 (ISH)” value [6] was “No significant difference is seen in intensity” and the “dlb 3′ transcript abundance” value [7, 8] was 0.74+/−0.07 fold. For the same compound, the “dlb 5′ transcript abundance” value [7, 8] was 1.13+/−0.14 fold, the “mitf 3′ transcript abundance” value [7, 8] was 0.39+/−0.07 fold and the “mitf 5′ transcript abundance” value [7, 8] was 3.75+/−1.19 fold. For the same compound, the “beta-actin 3′ transcript abundance” value ([7]; control gene, 6.5 uM, 24 hpf) was 0.99+/−0.06 fold, the “beta-actin 5′ transcript abundance” value ([7]; control gene, 6.5 uM, 24 hpf) was 1.03+/−0.07 fold and the “3′ transcription of mitf, pvalb2, her4.2 and dlb” value ([7]; leflunomide vs. DMSO) was “significant decrease in 3′ transcription”.

From US10646478B2, “Methods for treatment of melanoma” (CHILDREN'S MEDICAL CENTER CORPORATION, priority 2011, dated 2020)
